The values below come from patent publication US20060160721A1, “Method of plasma lipidation to prevent, inhibit and/or reverse atherosclerosis” (BAYLOR COLLEGE OF MEDICINE, priority 2004, published 2006).

Structures are written as SMILES.

The test in a line: Lipoprotein cholesterophilicity: cholesterol partitioning between lipoproteins and 2-hydroxypropyl-cyclodextrin (CDX). The class given is binding. To be noted: isolated LDL and HDL enriched with POPC by DP. How it is done: Control samples were prepared without detergent or POPC. The samples were dialyzed as described above. […] The samples were incubated for three hours and transferred to Microcon ultracentrifugal filters with an exclusion limit of 30 kDa and centrifuged for 10 min at 12,000 rpm in an Eppendorf microfuge. Aliquots of the retentate and filtrate were analyzed for cholesterol, protein, and phospholipid. The partition coefficient Kp for the distribution of cholesterol between TLP and CDX was calculated from Kp={FCBound×[[…]} Equation 1 where TLPPro is the initial TLP-protein concentration (mg/mL), […], and FCBound, respectively are the free cholesterol concentrations in the retentate, filtrate, and bound to TLP with FCBound calculated as […].

In the case of `CCCCCCCC/C=C\CCCCCCCC(=O)O[C@H](COC(=O)CCCCCCCCCCCCCCC)COP(=O)([O-])OCC[N+](C)(C)C` [POPC, 1-palmitoyl-2-oleoyl (PO) PC], the “effect of added POPC on the cholesterophilicities of LDL and HDL” value is recorded as “dose-dependent increase”.
